Reference: patent publication US6495591B1, “Fungal efflux pump inhibitors” (Essential Therapeutics, Inc., priority 1997, dated 2002)
Converted amounts (≈) assume the structure as drawn. Where two headings read alike, the source gives them in different places.

What was measured:
[1] = test system: YEM 15 C. albicans, CDR1CDR2 up; assay: microbe, parasite or virus in culture; format: cell-based; details: YEM 15, 24 hrs, 80% inhibition; for MIC of compound in the presence of fluconazole (+): 1/8 × MIC of fluconazole
Aspergillus fumigatus = assay: FEPI MICs in combination with 1/4 the azole's MIC (Table 12); format: cell-based; details: for FEPI MIC with itraconazole, 60% Inh / FEPI MIC with itraconazole, 80% Inh: itraconazole 0.063 μg/ml (1/4 MIC); for FEPI MIC with itraconazole, 60% Inh / FEPI MIC with ketoconazole, 60% Inh: 60% inhibition; for FEPI MIC with itraconazole, 80% Inh / FEPI MIC with ketoconazole, 80% Inh / FEPI MIC (alone): 80% inhibition; for FEPI MIC with ketoconazole, 60% Inh / FEPI MIC with ketoconazole, 80% Inh: ketoconazole 4 μg/ml (1/4 MIC); for FEPI MIC (alone): no azole, 35° C., CM Broth
Experimental: The combinations were tested against a series of Candida strain with known expression of efflux pumps or with complete deletion of all known pumps and Aspergillus fumigatus. Results are reported as minimum inhibitory concentration (MIC) of […] in the presence or absence of […]. A total of 27 distinct milbemycins were studied.

[2] = test system: YEM 17 C. glabrata, CgCDR up; format: cell-based; details: 24 hrs, 80% inhibition; for MIC of compound in the presence of fluconazole (+): 1/8 × MIC of fluconazole
[3] = test system: pCgBEN (MF) efflux pump in S. cerevisiae YEM-40; format: cell-based, C. glabrata; details: YEM-40 pCgBEN; fluconazole fixed at FLUhalf 2.8
[4] = test system: C. albicans YEM-12 (low level CDR1 expressor); assay: microbe, parasite or virus in culture; format: cell-based
[5] = target: pCgCDR (ABC) efflux pump in S. cerevisiae YEM-39 (Candida glabrata, UniProt Q6FK23); assay: cell-based; format: cell-based, C. glabrata
Chain of pCgCDR (ABC) efflux pump in S. cerevisiae YEM-39 (Q6FK23 whole entry): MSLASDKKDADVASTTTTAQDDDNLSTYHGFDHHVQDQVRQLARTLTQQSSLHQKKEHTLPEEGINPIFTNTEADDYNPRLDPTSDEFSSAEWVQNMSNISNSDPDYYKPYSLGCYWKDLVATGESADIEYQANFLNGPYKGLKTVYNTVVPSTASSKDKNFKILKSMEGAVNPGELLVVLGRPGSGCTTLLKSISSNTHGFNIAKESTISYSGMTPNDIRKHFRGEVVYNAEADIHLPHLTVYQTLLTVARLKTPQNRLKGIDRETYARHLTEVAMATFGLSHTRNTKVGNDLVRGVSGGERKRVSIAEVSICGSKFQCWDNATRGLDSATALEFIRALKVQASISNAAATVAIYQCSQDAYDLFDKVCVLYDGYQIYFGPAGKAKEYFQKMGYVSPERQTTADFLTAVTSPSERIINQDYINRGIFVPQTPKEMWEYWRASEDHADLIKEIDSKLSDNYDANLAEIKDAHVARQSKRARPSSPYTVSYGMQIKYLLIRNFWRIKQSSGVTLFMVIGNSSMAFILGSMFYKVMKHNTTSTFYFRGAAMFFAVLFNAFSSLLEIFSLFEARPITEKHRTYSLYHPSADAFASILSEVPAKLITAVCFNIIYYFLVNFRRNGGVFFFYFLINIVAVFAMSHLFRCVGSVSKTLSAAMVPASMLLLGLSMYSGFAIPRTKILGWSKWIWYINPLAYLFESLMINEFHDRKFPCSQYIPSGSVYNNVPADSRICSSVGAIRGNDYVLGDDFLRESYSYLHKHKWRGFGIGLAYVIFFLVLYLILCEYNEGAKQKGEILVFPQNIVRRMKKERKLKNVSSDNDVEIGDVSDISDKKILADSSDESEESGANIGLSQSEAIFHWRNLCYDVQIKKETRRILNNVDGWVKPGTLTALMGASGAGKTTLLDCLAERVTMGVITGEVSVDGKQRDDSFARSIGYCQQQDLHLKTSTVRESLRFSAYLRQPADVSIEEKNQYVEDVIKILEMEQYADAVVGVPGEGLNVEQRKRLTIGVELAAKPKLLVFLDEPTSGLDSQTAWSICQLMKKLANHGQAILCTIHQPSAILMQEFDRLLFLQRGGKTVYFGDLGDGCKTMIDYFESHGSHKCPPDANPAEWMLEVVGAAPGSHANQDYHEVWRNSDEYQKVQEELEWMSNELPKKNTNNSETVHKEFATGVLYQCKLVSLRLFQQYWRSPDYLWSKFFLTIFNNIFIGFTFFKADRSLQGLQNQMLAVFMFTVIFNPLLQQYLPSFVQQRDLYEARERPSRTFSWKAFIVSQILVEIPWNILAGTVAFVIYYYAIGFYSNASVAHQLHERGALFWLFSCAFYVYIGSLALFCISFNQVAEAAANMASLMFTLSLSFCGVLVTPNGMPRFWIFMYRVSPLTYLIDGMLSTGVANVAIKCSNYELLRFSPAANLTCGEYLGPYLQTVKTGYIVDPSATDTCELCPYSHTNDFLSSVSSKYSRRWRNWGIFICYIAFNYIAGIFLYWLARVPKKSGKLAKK

[6] = target: pBEN (MF) efflux pump in S. cerevisiae YEM-2 (Candida albicans, UniProt P28873); assay: cell-based; format: cell-based, C. albicans
Chain of pBEN (MF) efflux pump in S. cerevisiae YEM-2 (P28873 whole entry): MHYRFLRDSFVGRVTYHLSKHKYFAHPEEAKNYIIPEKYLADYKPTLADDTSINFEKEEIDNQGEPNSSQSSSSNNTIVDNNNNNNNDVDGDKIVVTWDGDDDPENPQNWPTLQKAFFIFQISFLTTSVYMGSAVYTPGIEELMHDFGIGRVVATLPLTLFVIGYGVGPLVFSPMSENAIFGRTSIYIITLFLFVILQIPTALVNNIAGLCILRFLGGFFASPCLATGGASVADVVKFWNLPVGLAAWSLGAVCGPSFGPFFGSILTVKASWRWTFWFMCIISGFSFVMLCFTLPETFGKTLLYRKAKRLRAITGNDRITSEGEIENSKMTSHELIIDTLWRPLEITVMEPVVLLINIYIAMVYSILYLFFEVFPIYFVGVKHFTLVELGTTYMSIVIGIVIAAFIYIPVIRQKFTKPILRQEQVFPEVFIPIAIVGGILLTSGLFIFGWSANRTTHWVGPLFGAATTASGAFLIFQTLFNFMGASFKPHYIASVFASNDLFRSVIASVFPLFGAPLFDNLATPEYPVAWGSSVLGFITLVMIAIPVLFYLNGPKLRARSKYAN

YEM 53 C. krusei = assay: FEPI MIC with/without 1/8 fluconazole MIC at 24 hrs (Table 11); format: cell-based; details: for MIC of compound in the absence of fluconazole (−): YEM 53, 24 hrs, 80% inhibition
[7] = test system: YEM 24 C. albicans ΔCDR1, ΔCDR2; assay: microbe, parasite or virus in culture; format: cell-based; details: YEM 24, 24 hrs, 80% inhibition; for MIC of compound in the presence of fluconazole (+): 1/8 × MIC of fluconazole
[8] = test system: C. albicans YEM-15 (CDR1 & CDR2 overexpressor); format: cell-based
[9] = target: pCDR2 (ABC) efflux pump in S. cerevisiae YEM-37 (Candida albicans, UniProt P78595); assay: cell-based; format: cell-based, C. albicans
Chain of pCDR2 (ABC) efflux pump in S. cerevisiae YEM-37 (P78595 whole entry): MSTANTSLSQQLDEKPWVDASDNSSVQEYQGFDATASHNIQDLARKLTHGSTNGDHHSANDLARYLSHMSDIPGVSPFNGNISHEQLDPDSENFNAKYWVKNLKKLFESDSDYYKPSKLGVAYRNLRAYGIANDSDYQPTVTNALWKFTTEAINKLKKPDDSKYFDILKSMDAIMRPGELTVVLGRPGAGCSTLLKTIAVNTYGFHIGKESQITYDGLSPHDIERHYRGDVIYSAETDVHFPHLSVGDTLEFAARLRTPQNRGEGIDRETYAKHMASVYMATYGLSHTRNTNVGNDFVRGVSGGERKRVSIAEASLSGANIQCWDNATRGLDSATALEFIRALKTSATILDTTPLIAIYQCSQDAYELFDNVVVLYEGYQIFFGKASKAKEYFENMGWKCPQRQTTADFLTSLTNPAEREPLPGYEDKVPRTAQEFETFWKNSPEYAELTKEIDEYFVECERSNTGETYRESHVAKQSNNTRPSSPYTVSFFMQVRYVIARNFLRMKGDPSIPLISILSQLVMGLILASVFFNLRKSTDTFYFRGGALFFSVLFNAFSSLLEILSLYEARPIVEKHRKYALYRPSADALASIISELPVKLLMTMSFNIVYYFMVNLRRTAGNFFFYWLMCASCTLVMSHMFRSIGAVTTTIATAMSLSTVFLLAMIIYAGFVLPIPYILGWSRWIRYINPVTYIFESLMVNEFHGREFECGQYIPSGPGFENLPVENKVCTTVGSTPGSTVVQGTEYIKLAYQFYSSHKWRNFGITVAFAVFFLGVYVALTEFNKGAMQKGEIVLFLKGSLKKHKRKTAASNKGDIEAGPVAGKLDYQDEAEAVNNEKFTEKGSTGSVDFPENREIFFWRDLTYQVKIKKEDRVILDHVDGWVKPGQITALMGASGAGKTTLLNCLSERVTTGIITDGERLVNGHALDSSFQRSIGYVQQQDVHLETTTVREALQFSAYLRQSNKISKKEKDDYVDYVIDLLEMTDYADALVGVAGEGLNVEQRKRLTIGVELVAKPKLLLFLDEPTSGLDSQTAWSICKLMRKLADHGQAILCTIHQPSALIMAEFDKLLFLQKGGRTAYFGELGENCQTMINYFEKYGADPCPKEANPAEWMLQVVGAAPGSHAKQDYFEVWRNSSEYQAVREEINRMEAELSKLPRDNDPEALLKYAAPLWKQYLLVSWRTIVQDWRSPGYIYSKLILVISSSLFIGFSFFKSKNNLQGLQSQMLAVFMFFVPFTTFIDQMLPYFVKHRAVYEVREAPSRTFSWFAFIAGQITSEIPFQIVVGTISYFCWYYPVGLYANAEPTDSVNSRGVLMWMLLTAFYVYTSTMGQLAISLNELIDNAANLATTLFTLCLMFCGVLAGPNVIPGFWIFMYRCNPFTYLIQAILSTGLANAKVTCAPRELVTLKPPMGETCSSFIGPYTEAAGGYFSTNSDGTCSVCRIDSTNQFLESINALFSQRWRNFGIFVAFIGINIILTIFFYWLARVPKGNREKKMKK

[10] = test system: C. albicans YEM-27 (CDR1, CDR2, BEN, FLU1 deleted); assay: microbe, parasite or virus in culture; format: cell-based
YEM 30 C. albicans wt = assay: FEPI MIC with/without 1/8 fluconazole MIC at 24 hrs (Table 11); format: cell-based; details: for MIC of compound in the absence of fluconazole (−): YEM 30, 24 hrs, 80% inhibition
[11] = test system: YEM 13 C. albicans BEN up; assay: microbe, parasite or virus in culture; format: cell-based; details: YEM 13, 24 hrs, 80% inhibition; for MIC of compound in the presence of fluconazole (+): 1/8 × MIC of fluconazole
YEM 51 C. glabrata wt = assay: FEPI MIC with/without 1/8 fluconazole MIC at 24 hrs (Table 11); format: cell-based; details: for MIC of compound in the absence of fluconazole (−): YEM 51, 24 hrs, 80% inhibition
[12] = target: pCDRI (ABC) efflux pump in S. cerevisiae YEM-1 (Candida albicans, UniProt P43071); assay: cell-based; format: cell-based, C. albicans
Chain of pCDRI (ABC) efflux pump in S. cerevisiae YEM-1 (P43071 whole entry): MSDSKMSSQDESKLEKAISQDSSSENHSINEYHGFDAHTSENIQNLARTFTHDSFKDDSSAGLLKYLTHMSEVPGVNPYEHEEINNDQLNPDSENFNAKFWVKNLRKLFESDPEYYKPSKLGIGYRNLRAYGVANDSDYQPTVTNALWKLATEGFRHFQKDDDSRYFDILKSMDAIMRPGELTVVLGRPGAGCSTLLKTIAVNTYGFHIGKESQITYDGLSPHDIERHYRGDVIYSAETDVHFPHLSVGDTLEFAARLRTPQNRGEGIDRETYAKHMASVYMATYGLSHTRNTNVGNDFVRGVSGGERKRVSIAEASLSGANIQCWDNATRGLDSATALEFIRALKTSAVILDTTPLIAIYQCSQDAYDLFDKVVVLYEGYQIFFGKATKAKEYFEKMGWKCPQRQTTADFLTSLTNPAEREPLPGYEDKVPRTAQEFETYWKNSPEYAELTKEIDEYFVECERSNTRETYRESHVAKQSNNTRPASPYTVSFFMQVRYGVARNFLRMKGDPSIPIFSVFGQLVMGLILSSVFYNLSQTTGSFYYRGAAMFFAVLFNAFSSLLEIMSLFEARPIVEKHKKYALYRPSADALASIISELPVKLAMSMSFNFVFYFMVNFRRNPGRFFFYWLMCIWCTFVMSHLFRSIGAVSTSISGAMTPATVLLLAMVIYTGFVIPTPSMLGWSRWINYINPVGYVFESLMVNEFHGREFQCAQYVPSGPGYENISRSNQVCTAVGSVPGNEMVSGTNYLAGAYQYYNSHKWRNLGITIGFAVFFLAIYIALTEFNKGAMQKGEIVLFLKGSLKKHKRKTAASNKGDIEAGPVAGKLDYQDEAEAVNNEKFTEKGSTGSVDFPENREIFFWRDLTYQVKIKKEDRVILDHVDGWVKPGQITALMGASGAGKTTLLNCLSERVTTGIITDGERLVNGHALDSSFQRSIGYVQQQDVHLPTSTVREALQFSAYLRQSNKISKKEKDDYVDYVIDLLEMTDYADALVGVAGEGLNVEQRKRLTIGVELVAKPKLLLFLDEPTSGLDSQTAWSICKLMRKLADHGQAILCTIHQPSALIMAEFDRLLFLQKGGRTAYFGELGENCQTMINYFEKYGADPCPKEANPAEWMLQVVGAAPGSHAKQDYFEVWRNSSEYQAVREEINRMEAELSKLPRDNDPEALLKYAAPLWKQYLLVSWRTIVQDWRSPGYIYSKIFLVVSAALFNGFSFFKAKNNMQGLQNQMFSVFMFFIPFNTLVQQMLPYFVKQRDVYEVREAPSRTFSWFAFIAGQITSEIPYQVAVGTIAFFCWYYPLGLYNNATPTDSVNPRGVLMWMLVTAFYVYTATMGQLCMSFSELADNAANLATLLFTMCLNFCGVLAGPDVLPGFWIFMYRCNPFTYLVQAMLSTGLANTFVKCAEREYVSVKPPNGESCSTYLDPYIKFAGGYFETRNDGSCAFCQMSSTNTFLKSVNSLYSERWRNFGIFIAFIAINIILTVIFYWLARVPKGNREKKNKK

[13] = test system: YEM 27 C. albicans ΔCDR1ΔCDR2 ΔBENΔFLU1; assay: microbe, parasite or virus in culture; format: cell-based; details: YEM 27, 24 hrs, 80% inhibition; for MIC of compound in the presence of fluconazole (+): 1/8 × MIC of fluconazole
[14] = test system: S. cerevisiae YEM-37 overexpressing CDR2 (C. albicans); assay: microbe, parasite or virus in culture; format: cell-based; parameters: MIC Reduction Factor, fluconazole: unit not given beside the values; details: for MIC: Saccharomyces cerevisiae
C. krusei = assay: microbe, parasite or virus in culture; format: cell-based
[15] = test system: C. albicans YEM-15 (CDR1 & CDR2 overexpressor); assay: microbe, parasite or virus in culture; format: cell-based; parameters: MIC Reduction Factor, fluconazole / MIC Reduction Factor, itraconazole / MIC Reduction Factor, ketoconazole / MIC Reduction Factor, terbinafine: unit not given beside the values; details: for MIC: Candida albicans
[16] = Candida albicans, read-out: MIC Mb alone
[17] = read-out: Terbinafine MIC in the presence of FEPImax
[18] = YEM-37 (CDR2), milbemycin α9 at FEPImax
[19] = YEM-37, milbemycin α9 at FEPImax
[20] = YEM-15, milbemycin α9 at FEPImax

CO[C@H]1C[C@@]2(O)/C(CO)=C/C=C/[C@H](C)C/C(C)=C/C[C@@H]3C[C@@H](C[C@]4(CC[C@H](C)[C@@H](C)O4)O3)OC(=O)[C@@H]2C=C1C [Compound 6, Milbemycin β1]
MIC of compound in the presence of fluconazole (+) [1]: ≦0.03 | MIC of compound in the absence of fluconazole (−) [1]: > 64 µg/mL | FEPI MIC with fluconazole, 60% Inh (Aspergillus fumigatus): 2 | FEPI MIC with fluconazole, 80% Inh (Aspergillus fumigatus): >64 | FEPI MIC with itraconazole, 60% Inh (Aspergillus fumigatus): >64 | FEPI MIC with itraconazole, 80% Inh (Aspergillus fumigatus): >64 | FEPI MIC with ketoconazole, 60% Inh (Aspergillus fumigatus): ≦0.063 | FEPI MIC with ketoconazole, 80% Inh (Aspergillus fumigatus): 4 | FEPI MIC (alone) (Aspergillus fumigatus): >64 | MIC of compound in the presence of fluconazole (+) [2]: 1 µg/mL | MIC of compound in the absence of fluconazole (−) [2]: > 64 µg/mL | FEPIhalf (concentration needed to reduce activity of efflux pump by 50%) [3]: 16 | MIC [4, 16]: 32 µg/mL (≈ 58.7 µM) | MIC of fluconazole, Flu + Mb (2.5 μg/ml) ([4]; YEM-12, milbemycin β1 2.5 μg/ml): 0.25 µg/mL | IC50 ([5]; read-out: FEPIhalf (concentration needed to reduce activity of efflux pump by 50%), YEM-39 pCgCDR, fluconazole fixed at FLUhalf 4): 3.67 µM | IC50 ([6]; read-out: FEPIhalf (concentration needed to reduce activity of efflux pump by 50%), YEM-2 pBEN, fluconazole fixed at FLUhalf 5.6): 29.4 µM | MIC of compound in the presence of fluconazole (+) (YEM 53 C. krusei): 8 µg/mL | MIC of compound in the absence of fluconazole (−) (YEM 53 C. krusei): > 64 µg/mL | MIC of compound in the presence of fluconazole (+) [7]: > 64 µg/mL | MIC of compound in the absence of fluconazole (−) [7]: > 64 µg/mL | Minimal concentration required to reduce the MIC of fluconazole by sixteen-fold [8]: <0.07 µg/mL | IC50 ([9]; read-out: FEPIhalf (concentration needed to reduce activity of efflux pump by 50%), YEM-37 pCDR2, fluconazole fixed at FLUhalf 1): 3.67 µM | MIC [10, 16]: 16 µg/mL (≈ 29.4 µM) | MIC of fluconazole, Flu + Mb (2.5 μg/ml) ([10]; YEM-27, all four pumps deleted, milbemycin β1 2.5 μg/ml): 0.03 µg/mL | Effect on fluconazole susceptibility ([10]; YEM-27, strain which lacked all identified efflux pumps): No effect | MIC of compound in the presence of fluconazole (+) (YEM 30 C. albicans wt): ≦0.03 | MIC of compound in the absence of fluconazole (−) (YEM 30 C. albicans wt): > 64 µg/mL | MIC of compound in the presence of fluconazole (+) [11]: > 64 µg/mL | MIC of compound in the absence of fluconazole (−) [11]: > 64 µg/mL | MIC of compound in the presence of fluconazole (+) (YEM 51 C. glabrata wt): 8 µg/mL | MIC of compound in the absence of fluconazole (−) (YEM 51 C. glabrata wt): > 64 µg/mL | IC50 ([12]; read-out: FEPIhalf (concentration needed to reduce activity of efflux pump by 50%), YEM-1 pCDRI, fluconazole fixed at FLUhalf 5.6): 0.918 µM | MIC of compound in the presence of fluconazole (+) [13]: 64 µg/mL | MIC of compound in the absence of fluconazole (−) [13]: > 64 µg/mL

C/C1=C\C[C@@H]2C[C@@H](C[C@]3(CC[C@H](C)[C@@H](C)O3)O2)OC(=O)[C@@H]2C=C(COC(=O)c3ccc[nH]3)[C@@H](O)[C@H]3OC/C(=C\C=C\[C@H](C)C1)[C@]32O [Compound 11, Milbemycin α9]
MIC of compound in the presence of fluconazole (+) [1]: ≦0.03 | MIC of compound in the absence of fluconazole (−) [1]: > 64 µg/mL | FEPI MIC with fluconazole, 60% Inh (Aspergillus fumigatus): ≦0.063 | FEPI MIC with fluconazole, 80% Inh (Aspergillus fumigatus): 0.5 | FEPI MIC with itraconazole, 60% Inh (Aspergillus fumigatus): 1 | FEPI MIC with itraconazole, 80% Inh (Aspergillus fumigatus): 4 | FEPI MIC with ketoconazole, 60% Inh (Aspergillus fumigatus): 0.125 | FEPI MIC with ketoconazole, 80% Inh (Aspergillus fumigatus): 0.125 | FEPI MIC (alone) (Aspergillus fumigatus): >64 | MIC of compound in the presence of fluconazole (+) [2]: 0.5 µg/mL | MIC of compound in the absence of fluconazole (−) [2]: > 64 µg/mL | FEPIhalf (concentration needed to reduce activity of efflux pump by 50%) [3]: >64 | MIC ([14]; read-out: Milbemycin α9 MIC): > 64 µg/mL | MIC [14, 17]: 0.5 µg/mL | FEPImax (minimal milbemycin α9 conc. for maximum MIC reduction), fluconazole ([14]; YEM-37 (CDR2)): 1 µg/mL | FEPImax (minimal milbemycin α9 conc. for maximum MIC reduction), terbinafine ([14]; YEM-37 (CDR2)): 4 µg/mL | Pump inhibition (%), fluconazole [14, 18]: 100% | Pump inhibition (%), terbinafine [14, 18]: 100% | Fluconazole MIC in the presence of FEPImax [14, 19]: 0.5 µg/mL | MIC Reduction Factor, fluconazole [14, 19]: 8 | IC50 [5]: 6.27 µM | IC50 [6]: > 100 µM | MIC of compound in the presence of fluconazole (+) (YEM 53 C. krusei): ≦0.03 | MIC of compound in the absence of fluconazole (−) (YEM 53 C. krusei): > 64 µg/mL | MIC of compound in the presence of fluconazole (+) [7]: > 64 µg/mL | MIC of compound in the absence of fluconazole (−) [7]: > 64 µg/mL | IC50 [9]: 3.14 µM | Fluconazole MIC, + milbemycin α9 (C. krusei): 16 µg/mL | MIC of compound in the presence of fluconazole (+) (YEM 30 C. albicans wt): ≦0.03 | MIC of compound in the absence of fluconazole (−) (YEM 30 C. albicans wt): > 64 µg/mL | MIC of compound in the presence of fluconazole (+) [11]: > 64 µg/mL | MIC of compound in the absence of fluconazole (−) [11]: > 64 µg/mL | MIC of compound in the presence of fluconazole (+) (YEM 51 C. glabrata wt): 1 µg/mL | MIC of compound in the absence of fluconazole (−) (YEM 51 C. glabrata wt): > 64 µg/mL | IC50 [12]: < 0.0941 µM | MIC of compound in the presence of fluconazole (+) [13]: > 64 µg/mL | MIC of compound in the absence of fluconazole (−) [13]: > 64 µg/mL | MIC ([15]; read-out: Milbemycin α9 MIC): > 64 µg/mL | MIC [15, 17]: 0.125 µg/mL | FEPImax (minimal milbemycin α9 conc. for maximum MIC reduction), fluconazole ([15]; YEM-15): 16 µg/mL | FEPImax (minimal milbemycin α9 conc. for maximum MIC reduction), itraconazole ([15]; YEM-15): 1 µg/mL | FEPImax (minimal milbemycin α9 conc. for maximum MIC reduction), ketoconazole ([15]; YEM-15): 4 µg/mL | FEPImax (minimal milbemycin α9 conc. for maximum MIC reduction), terbinafine ([15]; YEM-15): 4 µg/mL | Fluconazole MIC in the presence of FEPImax [15, 20]: 2 µg/mL | Itraconazole MIC in the presence of FEPImax [15, 20]: 0.06 µg/mL | Ketoconazole MIC in the presence of FEPImax [15, 20]: 0.015 µg/mL | MIC Reduction Factor, fluconazole [15, 20]: 64 | MIC Reduction Factor, itraconazole [15, 20]: 8 | MIC Reduction Factor, ketoconazole [15, 20]: 64 | MIC Reduction Factor, terbinafine [15, 20]: 1024
